{
  "source": "ChEMBL document CHEMBL1909046",
  "about": "“DrugMatrix in vitro pharmacology data”",
  "key": {"Cytochrome P450 3A4": {"molecular_target": "Cytochrome P450 3A4 (Homo sapiens, UniProt P08684)", "sequence (P08684 whole entry)": "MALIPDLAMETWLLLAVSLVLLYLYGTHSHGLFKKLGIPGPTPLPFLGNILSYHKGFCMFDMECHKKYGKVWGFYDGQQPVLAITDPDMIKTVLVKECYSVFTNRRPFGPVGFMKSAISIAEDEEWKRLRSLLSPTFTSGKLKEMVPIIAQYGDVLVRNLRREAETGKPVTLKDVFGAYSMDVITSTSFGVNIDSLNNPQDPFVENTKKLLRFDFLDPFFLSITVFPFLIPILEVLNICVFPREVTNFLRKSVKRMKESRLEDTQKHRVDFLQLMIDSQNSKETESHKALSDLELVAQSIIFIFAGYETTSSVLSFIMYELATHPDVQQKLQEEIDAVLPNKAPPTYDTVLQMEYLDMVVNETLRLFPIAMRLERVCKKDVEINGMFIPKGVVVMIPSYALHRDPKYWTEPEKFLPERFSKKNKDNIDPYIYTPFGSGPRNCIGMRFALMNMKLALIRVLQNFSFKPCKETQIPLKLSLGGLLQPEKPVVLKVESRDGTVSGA"}, "Estrogen receptor": {"molecular_target": "T1, Estrogen receptor (Homo sapiens, UniProt P03372)", "T1 sequence (P03372 whole entry)": "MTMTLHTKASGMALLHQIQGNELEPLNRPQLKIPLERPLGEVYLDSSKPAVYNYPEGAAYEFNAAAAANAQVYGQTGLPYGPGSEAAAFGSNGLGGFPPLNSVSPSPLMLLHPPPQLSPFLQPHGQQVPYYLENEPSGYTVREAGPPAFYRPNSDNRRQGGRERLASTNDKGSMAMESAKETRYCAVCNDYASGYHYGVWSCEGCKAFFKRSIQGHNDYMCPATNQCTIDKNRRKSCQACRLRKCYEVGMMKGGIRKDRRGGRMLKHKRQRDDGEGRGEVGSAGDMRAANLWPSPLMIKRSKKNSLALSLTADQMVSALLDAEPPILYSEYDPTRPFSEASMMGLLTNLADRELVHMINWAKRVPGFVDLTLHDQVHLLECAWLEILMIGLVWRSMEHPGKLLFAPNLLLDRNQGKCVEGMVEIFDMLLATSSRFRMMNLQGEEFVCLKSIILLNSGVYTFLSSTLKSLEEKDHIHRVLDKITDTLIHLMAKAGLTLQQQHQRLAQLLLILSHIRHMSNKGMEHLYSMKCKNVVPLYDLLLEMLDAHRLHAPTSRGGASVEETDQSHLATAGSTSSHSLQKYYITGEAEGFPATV", "assay": "biochemical"}},
  "data": [
    {"smiles": "CC(C)(C(=O)c1cccnc1)c1cccnc1", "note": "[METYRAPONE]", "values": [
      {"measurement": "IC50", "setting": "Cytochrome P450 3A4", "value": 0.8, "unit": "µM"}
    ]},
    {"smiles": "C#C[C@]1(O)CC[C@H]2[C@@H]3CCc4cc(OC)ccc4[C@H]3CC[C@@]21C", "note": "[MESTRANOL]", "values": [
      {"measurement": "IC50", "setting": "Estrogen receptor", "value": 0.018, "unit": "µM"},
      {"measurement": "Ki", "setting": "Estrogen receptor", "value": 0.00522, "unit": "µM"}
    ]},
    {"smiles": "C[C@]12CC[C@@H]3c4ccc(OC(=O)c5ccccc5)cc4CC[C@H]3[C@@H]1CC[C@@H]2O", "note": "[ESTRADIOL BENZOATE]", "values": [
      {"measurement": "IC50", "setting": "Estrogen receptor", "value": 0.065, "unit": "µM"},
      {"measurement": "Ki", "setting": "Estrogen receptor", "value": 0.018, "unit": "µM"}
    ]}
  ]
}
